Literature values, collected in patent US10342775B2, “Vitamin A for parenteral administration” (FRESENIUS KABI DEUTSCHLAND GMBH, priority 2015, dated 2019).

CCCCCCCCCCCCCCCC(=O)OC/C=C(C)/C=C/C=C(C)/C=C/C1=C(C)CCCC1(C)C [retinol palmitate]
solubility in water: practically insoluble in water
